According to US20240101584A1, “TARGETED DELIVERY OF 1,2,4,5 TETRAOXANE COMPOUNDS AND THEIR USES” (Westlake University, priority 2021, published 2024):
Like-named read-outs stand apart in the source and are kept apart here.

Columns and labels:
[1] = tested on: Huh7; assay: Viability IC50, Huh7 cells; type: cell-based; conditions: Homo sapiens, Huh-7; Table 12a
[2] = tested on: HEK293 cells; assay: MTT viability assay, HEK293 cells; type: cell-based; conditions: Homo sapiens, HEK293, 48 h incubation, mean, n = 3, read-out: IC50 against HEK293 cells
[3] = tested on: HEYA8 CSCs; assay: Protective effect of Q-VD-OPh, DFX and Fer-1 on HEYA8 CSCs; type: cell-based; conditions: for cell death pathway: HEYA8 cancer cells and CSCs
Description: FIGS. 5A-5B are bar graphs showing the protective effect of Q-VD-OPh, deferasirox (DFX) and ferrostatin-1 (Fer-1) on HeyA8 cancer stem cells (FIG. 5A) and HeyA8 spheres (FIG. 5B) after treatment with compound 48 and compound 37b, respectively, for 24 h. *P≤0.05, **P≤0.01 versus non-pretreated group. Data are plotted as the mean±SD, n=3 biologically independent samples. N.S., no statistically significant change. All P values were determined using two-tailed Student's t-test.

[4] = tested on: MDA-MB-231 xenograft tumors; assay: Mouse xenograft breast tumors (MDA-MB-231); type: in vivo, Nude mice; conditions: for histopathological observations of liver, heart, kidney, spleen and lungs: H&E staining, compared to the controls
Description: FIG. 12A is a graph showing the tumor volume of xenograft tumors versus time after s.c. injection of DMSO, PTX, compound 37b, or compound 48. Nude mice were injected s.c. with MDA-MB-231 cells (10^6) and randomly allocated to one of the six treatment groups (n=5): (i) DMSO, (ii) Paclitaxel (PTX), 5 mg/kg, (iii) compound 37b, 5 mg/kg, (iv) compound 37b, 10 mg/kg, (v) compound 48, 5 mg/kg, or (vi) compound 48, 10 mg/kg. When control animals (DMSO) began to appear tumor ulceration (25 days), all animals in the experiment were sacrificed and photographed.
FIG. 12B are photographs of the tumor from sacrificed animals of different treatment groups after 25 days. FIG. 12C is a graph showing the tumor weight of xenograft tumors versus time after s.c. injection of DMSO, PTX, compound 37b, or compound 48. Data are shown as mean±SEM. * P≤0.05 versus DMSO group. FIG. 12D are photographs showing the morphological observation of mice tissue treated with DMSO, paclitaxel, compound 37b, or compound 48 with H&E staining on heart, liver, kidney, lungs, and spleen tissues (200×).

[5] = tested on: T47D cells; assay: MTT viability assay, T47D cells; type: cell-based; conditions: for IC50: Homo sapiens, T47D
Description: (§1) The anticancer activities of the exemplary compounds listed in Example 1 were tested against human cervix Hela cells, mammary breast cancer MDA-MB-231 cells, human hepatocellular HepG2 cells, human colorectal HCT116 cells, mammary ductal T47D cells, non-cancerous NIH3T3 cells, dog's kidney MDCK cells, and mouse brain bEnd.3 cells, respectively.

[6] = tested on: cytosolic hydroxyl radical in MDA-MB-231 cells; assay: HKOH-1r hydroxyl radical detection in MDA-MB-231 cells; type: cell-based; conditions: about 5.5 h after addition
Description: FIG. 10 is a bar graph showing the relative mean fluorescence intensities of cells with HKOH-1r measured from the confocal images of MDA-MB-231 cells after treatment with compounds 48 and 37b, respectively. Scale bars represent 50 μm. Data are mean±s.e.m., n=20 cells for HKOH-1. Statistical significance was determined as ***P≤0.01 by Student's t test.
Reactive oxygen species is associated with the event of ferroptotic cell death. Oxidative stress induced by 48 and 37b can be indicated by the fluorogenic probe, HKOH-1r, that emits at 520 nm upon oxidation by cytosolic hydroxyl radical. By using HKOH-1r, it is possible to specify the type of ROS that tetraoxanes can produce in MDA-MB-231 cells.
Confocal images of MDA-MB-231 cells after tetraoxane treatment were captured and the relative mean fluorescence intensities of cells with HKOH-1r were quantified (FIG. 10). […] This phenomenon is consistent with one of the features of ferroptosis.

[7] = tested on: MDCK cells; assay: MTT viability assay, MDCK cells; type: cell-based, dog; conditions: Canis lupus familiaris, MDCK, 48 h incubation, mean, n = 3, read-out: IC50 against MDCK cells
Description: as §1

[8] = tested on: NIH3T3; assay: CellTiter-Glo viability, NIH3T3 cells (Table 14); type: cell-based; conditions: Mus musculus, 48 hrs, n = 3
[9] = tested on: HepG2 cells; assay: MTT viability assay, HepG2 cells; type: cell-based, human
Description: as §1

[10] = tested on: MCF7; assay: Viability IC50, MCF7 cells; type: cell-based; conditions: Homo sapiens, Table 12a
[11] = tested on: bEnd.3 cells; assay: MTT viability assay, bEnd.3 cells; type: cell-based, mouse; conditions: Mus musculus, BEND3, 48 h incubation, mean, n = 3, read-out: IC50 against bEnd.3 cells
Description: as §1

[12] = tested on: HCT116 cells; assay: MTT viability assay, HCT116 cells; type: cell-based, human; conditions: for IC50: Homo sapiens, HCT-116; for fold more cytotoxic to HCT116 cells than OZ277: comparator OZ277; for fold more cytotoxic than OZ439 on HCT116: comparator OZ439 (literature)
Description: as §1

[13] = tested on: Hela cells; assay: MTT viability assay, Hela cells; type: cell-based, human; conditions: Homo sapiens, HeLa, 48 h incubation, mean, n = 3, read-out: IC50 against Hela cells
Description: as §1

[14] = tested on: HEY A8 cells; assay: Protective effect of DFO and Fer-1 on adherent HEY A8 cells; type: cell-based; conditions: 24 h treatment
Description: FIG. 4 is a bar graph showing the protective effect of DFO and Fer-1 on HeyA8 cancer cells after treatment with compound 48 for 24 h. *P≤0.01, ***P≤0.001 versus non-pretreated group. Data represent mean±SD, n=3 biologically independent samples. All P values were determined using two-tailed Student's t-test.

[15] = tested on: HL-60 cells; assay: MTT viability assay, HL-60 cells; type: cell-based; conditions: for IC50: Homo sapiens, HL-60
[16] = tested on: Jurkat cells; assay: MTT viability assay, Jurkat cells; type: cell-based; conditions: Homo sapiens, 48 h incubation, mean, n = 3, read-out: IC50 against Jurkat cells
[17] = MTT, 48 h incubation, mean, n = 3, read-out: IC50 against T47D cells
[18] = MTT, 48 h incubation, mean, n = 3, read-out: IC50 against HCT116 cells
[19] = Table 12b, read-out: IC50 HCT116

Structure (SMILES)	IC50 [1]	cell death pathway [3]	histopathological observations of liver, heart, kidney, spleen and lungs [4]	IC50 [5, 17]	IC50 ([5]; Table 12b, read-out: IC50 T47D)	selectivity index (IC50 of NIH3T3 divided by IC50 on T47D) ([5]; Table 12b, value in bracket)	hydroxyl radical (HKOH-1r fluorescence) [6]	IC50 [7]	IC50 [8]	IC50 [10]	IC50 [12, 18]	IC50 [12, 19]	fold more cytotoxic to HCT116 cells than OZ277 [12]	fold more cytotoxic than OZ439 on HCT116 [12]	IC50 [13]	further results
CC(C)(C)C1CCC2(CC1)OOC1(CCC(OC(=O)NCCC[P+](c3ccccc3)(c3ccccc3)c3ccccc3)CC1)OO2.[Br-] (stereo not shown) [Compound 37b, (3-((((12-(tert-butyl)-7,8,15,16-tetraoxadispiro[5.2.59.26]hexadecan-3-yl)oxy)carbonyl)amino)propyl)triphenylphosphonium bromide]	3800 ± 900 nM	induced ferroptosis instead of apoptosis	no histological alterations	620 nM	600 ± 100 nM	(>7.6)	significant amount of hydroxyl radical was observed	9500 nM	4600 ± 1900 nM	2400 ± 1700 nM	600 ± 300 nM	600 ± 300 nM	113 fold	106 fold	1600 nM	IC50 [2]: 1600 nM; tumor growth compared with vehicle control ([4]; 10 mg/kg, MDA-MB-231 xenograft, 25 days): effective in inhibiting tumor growth; IC50 ([9]; Homo sapiens, HepG2, MTT, 48 h incubation, mean, n = 3, read-out: IC50 against HepG2 cells): 700 nM; fold more cytotoxic than RKA182 for HepG2 cells ([9]; comparator RKA182): 36 fold; IC50 [11]: 5200 nM; selectivity index (IC50 of NIH3T3 divided by IC50 on HCT116) ([12]; Table 12b, value in bracket): (>7.6)
CC(C)(C)C1CCC2(CC1)OOC1(CCC(OC(=O)NCCC[N+](C)(Cc3ccccc3)Cc3ccccc3)CC1)OO2.[I-] (stereo not shown) [Compound 48, N,N-dibenzyl-3-((((12-(tert-butyl)-7,8,15,16-tetraoxadispiro[5.2.59.26]hexadecan-3-yl)oxy)carbonyl)amino)-N-methylpropan-1-aminium iodide]	5200 ± 400 nM	ferroptosis	no histological alterations	1700 nM	1700 ± 300 nM	(>17)	significant amount of hydroxyl radical was observed	28200 nM	29000 ± 5700 nM	8700 ± 4100 nM	2200 ± 300 nM	2200 ± 300 nM	44 fold	29 fold	6300 nM	effect of Fer-1 co-treatment on HEYA8 CSCs ([3]; 24 h treatment): majority of the CSCs remained unaffected; effect of deferasirox (DFX) on cell death in HEYA8 CSCs ([3]; 24 h treatment): rescue part of the cell death; tumor size ([4]; 5 mg/kg and 10 mg/kg, MDA-MB-231 xenograft, 25 days): reduced the tumor size; abnormal behavior or weight loss during treatment period ([4]; MDA-MB-231 xenograft mice, entire treatment period): no abnormal behavior or weight loss; effect of DFO or Fer-1 pretreatment on induced cell death, adherent HEY A8 cells [14]: reversed the cell death; IC50 ([5]; Table 13, experimental data, MTT, 48 hrs, n = 3, read-out: IC50 T47D): 1700 ± 300 nM; selectivity index (IC50 of NIH3T3 divided by IC50 on T47D) ([5]; Table 13, value in bracket): (>17); IC50 ([12]; Table 13, experimental data, MTT, 48 hrs, n = 3, read-out: IC50 HCT116): 2200 ± 300 nM; selectivity index (IC50 of NIH3T3 divided by IC50 on HCT116) ([12]; Table 13, value in bracket): (>13); IC50 ([15]; MTT, 48 h incubation, mean, n = 3, read-out: IC50 against HL-60 cells): 1200 ± 900 nM; IC50 ([15]; Table 12b, read-out: IC50 HL-60): 1200 ± 900 nM; IC50 ([15]; Table 13, experimental data, MTT, 48 hrs, n = 3, read-out: IC50 HL-60): 1200 ± 900 nM; selectivity index (IC50 of NIH3T3 divided by IC50 on HL-60) ([15]; Table 13, value in bracket): (>24); fold more cytotoxic to HL-60 cells than OZ439 ([15]; comparator OZ439): at least 9 fold; fold more potent than RKA182 in HL-60 cells ([15]; comparator RKA182): 9 fold; IC50 [16]: 1000 nM
